Experimental data reported in US10898561B2, “Peptides and combination of peptides for use in immunotherapy against pancreatic cancer and other cancers” (IMMATICS BIOTECHNOLOGIES GMBH, priority 2015, dated 2021).

Columns and labels:
[1] = test system: CD8+ T cells; test: In vitro T-cell priming assay with aAPCs loaded with peptide/MHC complexes and anti-CD28 antibody, multimer readout; type: cell-based, human; settings: in vitro immunogenicity, healthy HLA-A*02 donors; for donors: positive donors; for wells: positive wells
Text: In order to obtain information regarding the immunogenicity of the TUMAPs of the present invention, the inventors performed investigations using an in vitro T-cell priming assay based on repeated stimulations of CD8+ T cells with artificial antigen presenting cells (aAPCs) loaded with peptide/MHC complexes and anti-CD28 antibody.
In order to perform in vitro stimulations by artificial antigen presenting cells loaded with peptide-MHC complex (pMHC) and anti-CD28 antibody, the inventors first isolated CD8+ T cells from fresh HLA-A*02 leukapheresis products via positive selection using CD8 microbeads (Miltenyi Biotec, Bergisch-Gladbach, Germany) of healthy donors obtained from the University clinics Mannheim, Germany, after informed consent.
PBMCs and isolated CD8+ lymphocytes were incubated in T-cell medium (TCM) until use consisting of RPMI-Glutamax (Invitrogen, Karlsruhe, Germany) supplemented with 10% heat inactivated human AB serum (PAN-Biotech, Aidenbach, Germany), 100 U/ml Penicillin/100 μg/ml Streptomycin (Cambrex, Cologne, Germany), 1 mM sodium pyruvate (CC Pro, Oberdorla, Germany), 20 μg/ml Gentamycin (Cambrex). 2.5 ng/ml IL-7 (PromoCell, Heidelberg, Germany) and 10 U/ml IL-2 (Novartis Pharma, Nürnberg, Germany) were also added to the TCM at this step.
Generation of pMHC/anti-CD28 coated beads, T-cell stimulations and readout was performed in a highly defined in vitro system using four different pMHC molecules per stimulation condition and 8 different pMHC molecules per readout condition.
The purified co-stimulatory mouse IgG2a anti human CD28 Ab 9.3 (Jung et al., 1987) was chemically biotinylated using Sulfo-N-hydroxysuccinimidobiotin as recommended by the manufacturer (Perbio, Bonn, Germany). Beads used were 5.6 μm diameter streptavidin coated polystyrene particles (Bangs Laboratories, Ill., USA).
800.000 beads/200 μl were coated in 96-well plates in the presence of 4×12.5 ng different biotin-pMHC, washed and 600 ng biotin anti-CD28 were added subsequently in a volume of 200 μl. Stimulations were initiated in 96-well plates by co-incubating 1×10^6 CD8+ T cells with 2×10^6 washed coated beads in 200 μl TCM supplemented with 5 ng/ml IL-12 (PromoCell) for 3 days at 37° C. Half of the medium was then exchanged by fresh TCM supplemented with 80 U/ml IL-2 and incubating was continued for 4 days at 37° C. This stimulation cycle was performed for a total of three times. For the pMHC multimer readout using 8 different pMHC molecules per condition, a two-dimensional combinatorial coding approach was used as previously described (Andersen et al., 2012) with minor modifications encompassing coupling to 5 different fluorochromes. Finally, multimeric analyses were performed by staining the cells with Live/dead near IR dye (Invitrogen, Karlsruhe, Germany), CD8-FITC antibody clone SK1 (BD, Heidelberg, Germany) and fluorescent pMHC multimers. For analysis, a BD LSRII SORP cytometer equipped with appropriate lasers and filters was used. Peptide specific cells were calculated as percentage of total CD8+ cells. Evaluation of multimeric analysis was done using the FlowJo software (Tree Star, Oregon, USA). In vitro priming of specific multimer+CD8+ lymphocytes was detected by comparing to negative control stimulations.

[2] = biological target: HLA-A*02:01 (Homo sapiens, UniProt P04439, D140Y/D185E/D98H/E176V/E277Q/G131W/G231S/I119V/I121R/I166T/I218V/L300P/L318F/N151K/N90K/P208A/P217A/Q86G/Q94H/R138H/R169H/T345S); test: MHC binding assay: UV-ligand exchange with beta2m ELISA; settings: MHC class I binding score, yield of UV-ligand exchange
Text: Candidate peptides for T cell based therapies according to the present invention were further tested for their MHC binding capacity (affinity). The individual peptide-MHC complexes were produced by UV-ligand exchange, where a UV-sensitive peptide is cleaved upon UV-irradiation, and exchanged with the peptide of interest as analyzed. Only peptide candidates that can effectively bind and stabilize the peptide-receptive MHC molecules prevent dissociation of the MHC complexes. To determine the yield of the exchange reaction, an ELISA was performed based on the detection of the light chain (β2m) of stabilized MHC complexes. The assay was performed as generally described in Rodenko et al. (Rodenko et al., 2006).
96 well MAXISorp plates (NUNC) were coated over night with 2 ug/ml streptavidin in PBS at room temperature, washed 4× and blocked for 1 h at 37° C. in 2% BSA containing blocking buffer. Refolded HLA-A*02:01/MLA-001 monomers served as standards, covering the range of 15-500 ng/ml. Peptide-MHC monomers of the UV-exchange reaction were diluted 100 fold in blocking buffer. Samples were incubated for 1 h at 37° C., washed four times, incubated with 2 ug/ml HRP conjugated anti-β2m for 1 h at 37° C., washed again and detected with TMB solution that is stopped with […]. Absorption was measured at 450 nm. Candidate peptides that show a high exchange yield (preferably higher than 50%, most preferred higher than 75%) are generally preferred for a generation and production of antibodies or fragments thereof, and/or T cell receptors or fragments thereof, as they show sufficient avidity to the MHC molecules and prevent dissociation of the MHC complexes.

Row | Substance | Peptide exchange [2] | Wells positive [%] [1] | donors [1] | wells [1]
1 | 3 (ALLTFMEQV; listed as Homo sapiens) [compound 3] | +++ (50%-75% = +++) | ++ (20%-49% = ++) |  | 
2 | 87 (LLLGSPAAA; listed as Homo sapiens) [compound 87] |  |  | +++ (50%-69% = +++) | + (<20% = +)
3 | 69 (VMAPFTMTI; listed as Homo sapiens) [compound 69] |  |  | ++++ (>=70% = ++++) | ++ (20%-49% = ++)
4 | 20 (RLAGDGVGAV; listed as Homo sapiens) [compound 20] | ++ (20%-49% = ++) | ++++ (>=70% = ++++) |  | 

Second part, led by results:

Row | Peptide exchange [2] | Substance | Wells positive [%] [1] | donors [1] | wells [1]
5 | ++ (20%-49% = ++) | 21 (HLMDQPLSV; listed as Homo sapiens) [compound 21] | + (<20% = +) |  | 
6 | ++ (20%-49% = ++) | 37 (GLLKKINSV; listed as Homo sapiens) [compound 37] | + (<20% = +) |  | 
7 | ++ (20%-49% = ++) | 23 (SLSAFTLFL; listed as Homo sapiens) [compound 23] | ++ (20%-49% = ++) |  | 
8 | +++ (50%-75% = +++) | 50 (ALAAILTRL; listed as Homo sapiens) [compound 50] | +++ (50%-69% = +++) |  | 
9 | ++++ (>=75% = ++++) | 34 (MLMPVHFLL; listed as Homo sapiens) [compound 34] | + (<20% = +) |  | 
